Drawing on patent publication US11077100B2, “Tetrahydroquinoline derivatives as P2X7 receptor antagonists” (RaQualia Pharma Inc., priority 2017, dated 2021), this text covers IC50 for 28 molecules.

Experiment [1] concerns the target human P2X7 (Homo sapiens (Human), UniProt Q99572). As to the kind of experiment: Human P2X7 functional assay (Ca2+ influx, Fluo-4, FDSS). The experiment is classed as cell-based. As to conditions: antagonistic activity with respect to the human P2X7 receptor; BzATP final concentration 80 microM. An outline of the steps:
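Ca2+ influx was triggered with BzATP (80 μM final) after a 10-min room-temperature compound preincubation and monitored with Fluo-4 (ex 480/em 540 nm) on FDSS. The cells were HEK293 stably carrying FLAG-tagged human P2X7. Duplicate-averaged 7-point dose-responses gave IC50s.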

For experiment [2], the target named is rat P2X7 (Rattus norvegicus (Rat), UniProt Q64663). Kind of experiment: Rat P2X7 functional assay (Ca2+ influx, Fluo-4, FDSS). Type of experiment: cell-based. Particulars: HEK293 cells stably expressing rat P2X7; BzATP final 10 microM; 7-point dose-response; read-out: Antagonistic activities with respect to the rat P2X7 receptor (IC50). In outline: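 IC50 derived from 7-point dose-response in duplicate, measuring inhibition of BzATP-evoked (final 10 microM) intracellular Ca2+ increase by Fluo-4 fluorescence on FDSS. Rat P2X7-HEK293 cells were exposed to compound for 10 min in the dark beforehand.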

pIC50: −log10 of the molar value. A value given as a limit tells only on which side of the number the result lay.

Sequence of rat P2X7 (Q64663 whole entry): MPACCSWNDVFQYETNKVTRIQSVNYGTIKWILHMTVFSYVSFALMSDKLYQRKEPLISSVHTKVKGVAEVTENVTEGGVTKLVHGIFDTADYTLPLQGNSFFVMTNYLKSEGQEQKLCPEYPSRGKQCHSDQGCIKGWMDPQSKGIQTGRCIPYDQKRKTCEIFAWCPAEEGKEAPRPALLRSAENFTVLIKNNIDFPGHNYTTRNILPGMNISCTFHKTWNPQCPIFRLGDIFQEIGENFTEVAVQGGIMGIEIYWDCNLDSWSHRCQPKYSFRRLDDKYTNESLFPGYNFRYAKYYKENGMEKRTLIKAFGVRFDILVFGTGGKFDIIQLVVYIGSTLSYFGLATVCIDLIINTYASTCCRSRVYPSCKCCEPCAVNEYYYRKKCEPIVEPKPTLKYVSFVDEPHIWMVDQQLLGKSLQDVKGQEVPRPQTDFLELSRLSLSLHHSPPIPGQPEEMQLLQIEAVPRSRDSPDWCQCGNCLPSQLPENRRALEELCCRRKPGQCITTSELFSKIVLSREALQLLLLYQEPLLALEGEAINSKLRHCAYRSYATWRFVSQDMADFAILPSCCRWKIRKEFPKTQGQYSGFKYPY
Sequence of human P2X7 (Q99572 whole entry): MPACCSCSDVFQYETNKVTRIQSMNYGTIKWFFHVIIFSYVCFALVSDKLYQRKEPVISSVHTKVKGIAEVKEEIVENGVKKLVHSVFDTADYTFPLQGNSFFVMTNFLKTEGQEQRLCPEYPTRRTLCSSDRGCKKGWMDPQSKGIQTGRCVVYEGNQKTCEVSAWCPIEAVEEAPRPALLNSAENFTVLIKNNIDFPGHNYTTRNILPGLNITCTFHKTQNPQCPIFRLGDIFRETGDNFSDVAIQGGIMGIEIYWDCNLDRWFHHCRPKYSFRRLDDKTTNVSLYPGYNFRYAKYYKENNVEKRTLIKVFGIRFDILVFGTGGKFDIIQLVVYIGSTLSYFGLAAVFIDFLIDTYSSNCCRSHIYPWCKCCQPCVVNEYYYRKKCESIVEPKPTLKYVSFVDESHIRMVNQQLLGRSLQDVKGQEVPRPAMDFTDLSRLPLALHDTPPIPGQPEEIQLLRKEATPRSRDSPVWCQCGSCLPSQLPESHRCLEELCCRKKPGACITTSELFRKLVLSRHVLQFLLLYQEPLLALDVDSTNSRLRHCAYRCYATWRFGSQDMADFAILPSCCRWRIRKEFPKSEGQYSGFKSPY

Regarding `O=C(NC1CC1c1ccc(Cl)cc1Cl)[C@]1(F)CC[C@H](O)c2ncccc21` (stereo partly drawn) [Example 238, (5S,8S)-N-((trans)-2-(2,4-dichlorophenyl)cyclopropyl)-5-fluoro-8-hydroxy-5,6,7,8-tetrahydroquinoline-5-carboxamide], the pIC50 in experiment [1] is more than 7.30; in experiment [2] it was more than 6.00.

For `CO[C@H]1CC[C@@](F)(C(=O)NCc2ccc(F)cc2Cl)c2cccnc21` [Example 337, (5S,8S)-N-(2-chloro-4-fluorobenzyl)-5-fluoro-8-methoxy-5,6,7,8-tetrahydroquinoline-5-carboxamide], the pIC50 is more than 7.30 in experiment [1] and more than 6.00 in experiment [2].

Take `O=C(NCc1ccc(Cl)cc1Cl)[C@]1(F)CC[C@@H](O)c2ncccc21` [Example 106, (5S,8R)-N-(2,4-dichlorobenzyl)-5-fluoro-8-hydroxy-5,6,7,8-tetrahydroquinoline-5-carboxamide]: the figures for the negative-log IC50 (pIC50) in experiment [1] and in experiment [2] were more than 7.30 and more than 6.00, respectively.

Consider `O=C(NCc1c(Cl)cc(F)cc1CO)[C@]1(F)CC[C@@](O)(CO)c2ncccc21` [Example 317, (5S,8S)-N-(2-chloro-4-fluoro-6-(hydroxymethyl)benzyl)-5-fluoro-8-hydroxy-8-(hydroxymethyl)-5,6,7,8-tetrahydroquinoline-5-carboxamide], for which the pIC50 in experiment [1] is more than 7.30; in experiment [2], more than 6.00.

Consider `O=C(NCc1ccc(F)c(F)c1Cl)[C@]1(F)CC[C@](O)(CO)c2ncccc21` [Example 313, (5S,8R)-N-(2-chloro-3,4-difluorobenzyl)-5-fluoro-8-hydroxy-8-(hydroxymethyl)-5,6,7,8-tetrahydroquinoline-5-carboxamide], for which the pIC50 is 7.00 to 7.30 in experiment [1] and more than 6.00 in experiment [2].

As for `CS(=O)(=O)C[C@]1(O)CC[C@@](F)(C(=O)NCc2ccc(Cl)cc2Cl)c2cccnc21` [Example 298, (5S,8S)-N-(2,4-dichlorobenzyl)-5-fluoro-8-hydroxy-8-((methylsulfonyl)methyl)-5,6,7,8-tetrahydroquinoline-5-carboxamide], the results for the pIC50 in experiment [1] and in experiment [2] were more than 7.30 and more than 6.00, respectively.

On to `O=C(NCc1c(F)ccc(Cl)c1F)[C@]1(F)CC[C@H](O)c2ncccc21` [Example 193, (5S,8S)-N-(3-chloro-2,6-difluorobenzyl)-5-fluoro-8-hydroxy-5,6,7,8-tetrahydroquinoline-5-carboxamide], for which the results for the pIC50 in experiment [1] and in experiment [2] were more than 7.30 and more than 6.00, respectively.

In the case of `O=C(NCc1ccc(Cl)cc1Cl)C1(F)CCC(O)(CO)c2ncccc21` (centres unmarked) [Example 37, N-(2,4-dichlorobenzyl)-5-fluoro-8-hy-droxy-8-(hydroxymethyl)-5,6,7,8-tetra-hydroquinoline-5-carboxamide], the values for the pIC50 in experiment [1] and in experiment [2] were more than 7.30 and more than 6.00, respectively.

As to `COCc1cc(Cl)cc(Cl)c1CNC(=O)C1CCC(O)c2ncccc21` (centres unmarked) [Example 10, N-(2,4-dichloro-6-(methoxy-methyl)benzyl)-8-hydroxy-5,6,7,8-tetrahydro-quinoline-5-carboxamide], the results for the pIC50 in experiment [1] and in experiment [2] were more than 7.30 and more than 6.00, respectively.

Turning to `O=C(NCc1c(F)cc(Cl)cc1Cl)[C@]1(F)CC[C@@](O)(CO)c2ncccc21` [Example 310, (5S,8S)-N-(2,4-dichloro-6-fluorobenzyl)-5-fluoro-8-hydroxy-8-(hydroxymethyl)-5,6,7,8-tetrahydroquinoline-5-carboxamide], the pIC50 in experiment [1] was more than 7.30; in experiment [2] it was more than 6.00.

For the molecule `CN1CCO[C@]2(CC[C@@](F)(C(=O)NCc3ccc(Cl)cc3Cl)c3cccnc32)C1` [Example 290, (2R,5′S)—N-(2,4-dichlorobenzyl)-5′-fluoro-4-methyl-6′,7′-dihydro-5′H-spiro[morpholine-2,8′-quinoline]-5′-carboxamide], the pIC50 is more than 7.30 in experiment [1] and more than 6.00 in experiment [2].

`Cc1cc(Cl)cc(Cl)c1CNC(=O)C1CC(O)c2ncccc21` (centres unmarked) [Example 26, N-(2,4-dichloro-6-methyl-benzyl)-7-hydroxy-6,7-dihydro-5H-cyclopenta[b] pyridine-5-carboxamide]: the pIC50 is more than 7.30 in experiment [1] and more than 6.00 in experiment [2].

For the molecule `O=C(NCc1c(F)cc(Cl)cc1Cl)[C@]1(F)CC[C@@H](O)c2ncccc21` [Example 117, (5S,8R)-N-(2,4-dichloro-6-fluorobenzyl)-5-fluoro-8-hydroxy-5,6,7,8-tetrahydroquinoline-5-carboxamide], the pIC50 is more than 7.30 in experiment [1] and more than 6.00 in experiment [2].

As for `O=C(NCc1ccc(Cl)cc1Cl)C1(F)CCC(O)c2ncccc21` (centres unmarked) [Example 22, N-(2,4-dichlorobenzyl)-5-fluoro-8-hydroxy-5,6,7,8-tetrahydroquinoline-5-carboxamide], the pIC50 in experiment [1] is more than 7.30; in experiment [2], more than 6.00.

Take `C[C@@H](NC(=O)[C@]1(F)CC[C@H](O)c2ncccc21)c1ccc(F)cc1Cl` [Example 237, (5S,8S)-N-((R)-1-(2-chloro-4-fluorophenyl)ethyl)-5-fluoro-8-hydroxy-5,6,7,8-tetrahydroquinoline-5-carboxamide]: the pIC50 was more than 7.30 in experiment [1] and more than 6.00 in experiment [2].

As for `Cc1cc(Cl)cc(Cl)c1CNC(=O)[C@H]1C[C@H](O)c2ncccc21` [Example 83, (5S,7S)-N-(2,4-dichloro-6-methylbenzyl)-7-hy-droxy-5,7-dihydro-5H-cyclopenta[b]pyridin-5-carboxamide], the pIC50 in experiment [1] is 6.52 to 7.00; in experiment [2] it was more than 6.00.

For `Cc1cc(Cl)cc(Cl)c1CNC(=O)C1CCC(O)(CN)c2ncccc21` (centres unmarked) [Example 43, 8-(aminomethyl)-N-(2,4-dichloro-6-meth-ylbenzyl)-8-hydroxy-5,6,7,8-tetrahydroquinoline-5-carboxamide], the pIC50 in experiment [1] was more than 7.30; in experiment [2], more than 6.00.

As to `O=C(NCc1ccc(Cl)cc1Cl)[C@@]1(F)CC[C@@](O)(CO)c2ncccc21` [Example 303, (5R,8S)-N-(2,4-dichlorobenzyl)-5-fluoro-8-hydroxy-8-(hydroxymethyl)-5,6,7,8-tetrahydroquinoline-5-carboxamide], the pIC50 in experiment [1] was 5.52 to 6.00; in experiment [2], more than 6.00.

In the case of `O=C(NCc1c(Cl)cc(Cl)cc1CO)[C@]1(F)CC[C@H](O)c2ncccc21` [Example 131, (5S,8S)-N-(2,4-dichloro-6-(hydroxymethyl)benzyl)-5-fluoro-8-hydroxy-5,6,7,8-tetrahydroquinoline-5-carboxamide], the pIC50 was more than 7.30 in experiment [1] and more than 6.00 in experiment [2].

As to `CO[C@H]1CC[C@@](F)(C(=O)NCc2ccc(F)c(F)c2F)c2cccnc21` [Example 339, (5S,8S)-5-fluoro-8-methoxy-N-(2,3,4-trifluorobenzyl)-5,6,7,8-tetrahydroquinoline-5-carboxamide], the results for the pIC50 in experiment [1] and in experiment [2] were more than 7.30 and more than 6.00, respectively.

Take `O=C(NCc1ccc(F)cc1F)[C@]1(F)CC[C@@](O)(CO)c2ncccc21` [Example 318, (5S,8S)-N-(2,4-difluorobenzyl)-5-fluoro-8-hydroxy-8-(hydroxymethyl)-5,6,7,8-tetrahydroquinoline-5-carboxamide]: the results for the pIC50 in experiment [1] and in experiment [2] were 6.00 to 6.52 and more than 6.00, respectively.

Take `C[C@@H](NC(=O)[C@]1(F)CC[C@@](O)(CO)c2ncccc21)c1ccc(Cl)cc1Cl` [Example 326, (5S,8S)-N-((R)-1-(2,4-dichlorophenyl)ethyl)-5-fluoro-8-hydroxy-8-(hydroxymethyl)-5,6,7,8-tetrahydroquinoline-5-carboxamide]: the pIC50 in experiment [1] is more than 7.30; in experiment [2] it was more than 6.00.

Turning to `Cc1cc(Cl)cc(Cl)c1CNC(=O)C1(F)CCC(O)(CN)c2ncccc21` (centres unmarked) [Example 45, 8-(aminomethyl)-N-(2,4-dichloro-6-methylbenzyl)-5-fluoro-8-hydroxy-5,6,7,8-tetrahydro-quinoline-5-carboxamide], the pIC50 in experiment [1] was more than 7.30; in experiment [2], more than 6.00.

Regarding `O=C(NCc1ccc(F)cc1Cl)[C@]1(F)CC[C@H](O)c2ncc(F)cc21` [Example 242, (5S,8S)-N-(2-chloro-4-fluorobenzyl)-3,5-difluoro-8-hydroxy-5,6,7,8-tetrahydroquinoline-5-carboxamide], the negative-log IC50 (pIC50) in experiment [1] was more than 7.30; in experiment [2] it was more than 6.00.

As for `O=C(NCc1ccc(F)cc1Cl)[C@]1(F)CC[C@@](O)(CO)c2ncccc21` [Example 306, (5S,8S)-N-(2-chloro-4-fluorobenzyl)-5-fluoro-8-hydroxy-8-(hydroxymethyl)-5,6,7,8-tetrahydroquinoline-5-carboxamide], the values for the pIC50 in experiment [1] and in experiment [2] were more than 7.30 and more than 6.00, respectively.

For the molecule `Cc1cc(Cl)cc(Cl)c1CNC(=O)C1CCC(O)c2ncccc21` (centres unmarked) [Example 6, N-(2,4-dichloro-6-methyl-benzyl)-8-hydroxy-5,6,7,8-tetrahydroquinoline-5-carboxamide], the results for the pIC50 in experiment [1] and in experiment [2] were more than 7.30 and more than 6.00, respectively.

Regarding `O=C(NCc1ccc(F)cc1Cl)[C@]1(F)CC[C@@](O)(CN2CC(O)C2)c2ncccc21` (relative stereo) [Example 52, (5S*,8R*)-N-(2-chloro-4-fluorobenzyl)-5-fluoro-8-hy-droxy-8-((3-hydroxy-azetidin-1-yl)methyl)-5,6,7,8-tetrahydro-quinoline-5-carboxamide], the pIC50 in experiment [1] was more than 7.30; in experiment [2], more than 6.00.

In the case of `O=C(NCc1ccccc1C(F)(F)F)[C@]1(F)CC[C@H](O)c2ncccc21` [Example 199, (5S,8S)-5-fluoro-8-hydroxy-N-(2-(trifluoromethyl)benzyl)-5,6,7,8-tetrahydroquinoline-5-carboxamide], the pIC50 in experiment [1] is 7.00 to 7.30; in experiment [2], more than 6.00.

For orientation: pIC50 means the negative decadic logarithm of the IC50, by convention in mol/L.
